Results: patent publication US20200254014A1, “ANTIMICROBIAL COMPOSITIONS AND METHODS FOR THEIR PRODUCTION” (National University of Ireland, Galway, priority 2013, published 2020)

Key:
[1] = test system: E. coli ATCC 25922; type: cell-based
Experimental: In an attempt to induce a tolerance to an antimicrobial, the micro-broth dilution method was utilised, with repeated passaging, with E. coli ATCC 25922 and a number of antibiotics, as well as the composition of the invention containing hydrogen peroxide and potassium iodide. […] Doubling dilutions of antimicrobial compositions were made using a 96 well plate. The well contents were inoculated with 10^4 cfu ml^−1 E. coli ATCC 25922 and allowed to incubate.

[2] = test system: E. coli ATCC 25922; assay: MIC of iodine based antimicrobials in absence and presence of organic material; type: cell-based
Description: As a comparison, PVP-1 or povidone iodine, used frequently in hospital setting as a topical antiseptic, was used as a source of free iodine (12).

[3] = test system: S. aureus BH1CC (MRSA); settings: strain isolated from Beaumont hospital; cited from earlier work

polymyxin B
resistance of the organism after passaging in presence of the antibiotic ([1]; after only 8 passages): completely resistant

OO [Example H2O2, hydrogen peroxide]
MIC ([2]; broth): 20 to 40 µg/mL

polyvinylpyrrilidone, PVP-I, also known as povidone-iodine
MIC ([2]; in LB): >250 µg/mL
MIC ([2]; milk): >250 µg/mL
MIC ([2]; saline): 1 to 2 µg/mL

C[C@H]1COc2c(N3CCN(C)CC3)c(F)cc3c(=O)c(C(=O)O)cn1c23 [levofloxacin]
increase in tolerance versus pre-passaging ([1]; after 10 passages): 8 times

Cc1onc(-c2ccccc2)c1C(=O)N[C@@H]1C(=O)N2[C@@H]1SC(C)(C)[C@@H]2C(=O)O [oxacillin]
oxacillin MIC [3]: > 256 µg/mL
